Counter-ions that a name gives are not always drawn.
Assay: Solubility of the salts (saturated solution, filtering, HPLC determination of homoeriodictyol content)
Format: physicochemical
Method: The solubility of the homoeriodictyol sodium salt and the salts produced in Example 1 and Example 2 is determined by the production of a saturated solution, filtering of this and then HPLC determination of the homoeriodictyol content.

Q: Which “solubility compared with pure homoeriodictyol sodium salt” value does the source give for `COc1cc([C@@H]2CC(=O)c3c(O)cc(O)cc3O2)ccc1O` [Example 1, homoeriodictyol potassium salt] here?
A: Its value is “better solubility”.

Q: What about the “Solubility in water, containing 1.5 g/l citric acid” value (water containing 1.5 g/l citric acid, saturated solution, filtered, HPLC, potassium salt) of the same molecule?
A: The value was 5100 µg/mL.

Q: And the Solubility in water (saturated solution, filtered, HPLC, potassium salt)?
A: The Solubility in water was 7000 µg/mL.

Q: Which solubility (water containing 1.5 g/l citric acid, aqueous buffer, thermodynamic from solid, saturated solution, filtered, HPLC) does the source give for `COc1cc([C@@H]2CC(=O)c3c(O)cc(O)cc3O2)ccc1O` [Homoeriodictyol sodium salt, reference compound] here?
A: Its solubility is 3800 µg/mL.

Q: What about the Solubility in water (saturated solution, filtered, HPLC, sodium salt) of the same molecule?
A: Its Solubility in water is 2800 µg/mL.

Q: Which “Solubility in water, containing 1.5 g/l citric acid” value (water containing 1.5 g/l citric acid, saturated solution, filtered, HPLC, Potassium Calcium Salt) does the source give for `COc1cc([C@@H]2CC(=O)c3c(O)cc(O)cc3O2)ccc1O` [Example 2, Homoeriodictyol Potassium Calcium Salt] here?
A: The value was 5400 µg/mL.

Q: What about the Solubility in water (saturated solution, filtered, HPLC, Potassium Calcium Salt) of the same molecule?
A: The Solubility in water was 10000 µg/mL.

Reference: US9198451B2, “Aroma composition to reduce or suppress undesirable bitter and astringent taste impressions of sweeteners” (SYMRISE AG, priority 2008, dated 2015)
